For data set [1], the target named is Tyrosine-protein kinase Lck (Homo sapiens, UniProt P06239).
Description: Inhibition of human Lck in presence of ATP
Data set [2] has as its system T-cell. Kind of data set: Inhibition of anti CD3/anti CD28-induced T cell proliferation. It is filed as functional, cell-based. As to conditions: Homo sapiens.
Data set [3] concerns the target Proto-oncogene tyrosine-protein kinase LCK (Mus musculus, UniProt P06240).
Description: Inhibition of murine Lck in presence of ATP
For data set [4], the target named is Tyrosine-protein kinase Fgr (Homo sapiens, UniProt P09769). The experiment in a line: Inhibition of Fgr.
Tyrosine-protein kinase Fgr, sequence (P09769 whole entry): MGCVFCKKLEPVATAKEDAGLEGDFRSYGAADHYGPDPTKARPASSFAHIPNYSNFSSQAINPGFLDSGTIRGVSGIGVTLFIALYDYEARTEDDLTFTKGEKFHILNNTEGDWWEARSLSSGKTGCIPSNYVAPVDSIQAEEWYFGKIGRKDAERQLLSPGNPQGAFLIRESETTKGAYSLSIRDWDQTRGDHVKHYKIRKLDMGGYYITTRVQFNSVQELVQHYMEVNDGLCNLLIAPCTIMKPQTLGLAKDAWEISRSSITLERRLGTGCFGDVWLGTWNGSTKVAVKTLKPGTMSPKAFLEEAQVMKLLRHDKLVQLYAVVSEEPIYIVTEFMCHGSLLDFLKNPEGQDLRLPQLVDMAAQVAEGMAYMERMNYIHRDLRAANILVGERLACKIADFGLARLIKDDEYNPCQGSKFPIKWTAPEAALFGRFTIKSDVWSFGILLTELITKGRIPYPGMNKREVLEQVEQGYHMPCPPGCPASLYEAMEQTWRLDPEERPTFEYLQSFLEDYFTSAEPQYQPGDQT
The target of data set [5] is Fibroblast growth factor receptor 1 (Homo sapiens, UniProt P11362). Kind of data set: Inhibition of FGFR1.
Fibroblast growth factor receptor 1, sequence (P11362 whole entry): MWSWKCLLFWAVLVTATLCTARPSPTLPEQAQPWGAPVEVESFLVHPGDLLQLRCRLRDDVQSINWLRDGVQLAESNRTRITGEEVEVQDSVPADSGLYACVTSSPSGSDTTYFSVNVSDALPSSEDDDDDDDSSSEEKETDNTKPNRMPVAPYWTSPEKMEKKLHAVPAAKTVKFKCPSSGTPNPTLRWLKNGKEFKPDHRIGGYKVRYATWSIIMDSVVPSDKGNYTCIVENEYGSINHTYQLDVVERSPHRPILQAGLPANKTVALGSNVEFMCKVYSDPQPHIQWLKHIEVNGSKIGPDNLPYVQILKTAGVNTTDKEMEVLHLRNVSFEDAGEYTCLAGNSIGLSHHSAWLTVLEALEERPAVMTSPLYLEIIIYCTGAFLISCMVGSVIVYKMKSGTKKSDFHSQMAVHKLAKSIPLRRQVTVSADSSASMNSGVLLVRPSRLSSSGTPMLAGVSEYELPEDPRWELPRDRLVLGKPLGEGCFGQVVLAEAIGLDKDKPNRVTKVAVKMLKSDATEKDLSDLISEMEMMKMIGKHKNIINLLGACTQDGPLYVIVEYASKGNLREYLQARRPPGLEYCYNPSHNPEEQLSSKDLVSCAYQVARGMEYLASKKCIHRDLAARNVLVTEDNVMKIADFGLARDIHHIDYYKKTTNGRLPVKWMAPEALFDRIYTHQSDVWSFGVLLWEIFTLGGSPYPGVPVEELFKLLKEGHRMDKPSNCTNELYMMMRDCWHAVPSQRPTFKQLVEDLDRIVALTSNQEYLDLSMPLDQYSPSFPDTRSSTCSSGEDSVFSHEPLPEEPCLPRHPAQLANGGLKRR
Data set [6] concerns the target Tyrosine-protein kinase Yes (Homo sapiens, UniProt P07947). Kind of data set: Inhibition of Yes.
Data set [7] deals with Tyrosine-protein kinase Lyn (Homo sapiens, UniProt P07948). Kind of data set: Inhibition of Lyn.
The subject of data set [8] is Mus musculus. Kind of data set: Inhibition of anti CD3/anti CD28-induced IL2 production in po dosed BALB/c mouse. It is filed as functional.
Data set [9] has as its system Rattus norvegicus. The experiment in a line: Volume of distribution in rat at 10 mg/kg, iv and po. It is filed as ADME, organism-based. The conditions noted are these: in vivo. Also noted: dose 10 mg/kg, route oral.
Data set [10] concerns the target Proto-oncogene tyrosine-protein kinase Src (Homo sapiens, UniProt P12931). Kind of data set: Inhibition of Src in presence of ATP.
Data set [11] concerns the target Receptor tyrosine-protein kinase erbB-2 (Homo sapiens, UniProt P04626). The experiment in a line: Inhibition of Her2.
In data set [12] the test system is PBMC. The experiment in a line: Inhibition of LPS-induced TNFalpha production in human PBMC. It counts as functional, cell-based.
The test system of data set [13] is Mus musculus. Kind of data set: Inhibition of LPS-induced TNFalpha production in C57BL/6 mouse at 60 mg/kg, po. As to conditions: C57BL/6, po.
Data set [14] concerns the target Proto-oncogene tyrosine-protein kinase LCK (Mus musculus) (UniProt P06240). The conditions noted are these: 50 uM.
Description: Inhibition of murine Lck at 50 uM

Proto-oncogene tyrosine-protein kinase LCK, sequence (P06240 whole entry): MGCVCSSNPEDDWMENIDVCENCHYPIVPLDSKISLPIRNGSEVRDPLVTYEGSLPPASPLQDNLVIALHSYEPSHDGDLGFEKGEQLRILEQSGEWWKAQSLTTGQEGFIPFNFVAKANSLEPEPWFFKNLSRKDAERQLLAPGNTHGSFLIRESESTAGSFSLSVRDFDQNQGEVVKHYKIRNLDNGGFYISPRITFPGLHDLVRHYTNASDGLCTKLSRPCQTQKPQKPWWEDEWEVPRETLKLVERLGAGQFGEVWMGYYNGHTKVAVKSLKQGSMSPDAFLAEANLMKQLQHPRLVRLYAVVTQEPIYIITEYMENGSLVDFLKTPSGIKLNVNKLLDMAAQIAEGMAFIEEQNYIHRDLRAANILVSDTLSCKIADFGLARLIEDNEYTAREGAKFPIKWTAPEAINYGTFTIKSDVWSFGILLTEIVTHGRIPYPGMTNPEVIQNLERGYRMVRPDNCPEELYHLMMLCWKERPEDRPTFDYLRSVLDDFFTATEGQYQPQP
Tyrosine-protein kinase Lck, sequence (P06239 whole entry): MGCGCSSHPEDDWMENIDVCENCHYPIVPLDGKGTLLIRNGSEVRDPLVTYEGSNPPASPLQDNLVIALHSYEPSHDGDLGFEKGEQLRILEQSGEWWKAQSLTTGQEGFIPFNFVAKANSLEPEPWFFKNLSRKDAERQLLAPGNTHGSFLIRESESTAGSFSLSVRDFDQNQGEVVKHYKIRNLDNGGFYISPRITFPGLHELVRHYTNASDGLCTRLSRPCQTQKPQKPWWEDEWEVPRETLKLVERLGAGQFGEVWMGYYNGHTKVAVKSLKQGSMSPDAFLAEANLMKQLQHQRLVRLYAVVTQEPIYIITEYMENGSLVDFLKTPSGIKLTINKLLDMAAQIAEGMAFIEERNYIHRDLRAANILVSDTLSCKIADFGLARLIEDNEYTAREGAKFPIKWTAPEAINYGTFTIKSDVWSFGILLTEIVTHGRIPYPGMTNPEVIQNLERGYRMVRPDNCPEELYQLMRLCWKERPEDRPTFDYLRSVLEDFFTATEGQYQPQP
Receptor tyrosine-protein kinase erbB-2, sequence (P04626 whole entry): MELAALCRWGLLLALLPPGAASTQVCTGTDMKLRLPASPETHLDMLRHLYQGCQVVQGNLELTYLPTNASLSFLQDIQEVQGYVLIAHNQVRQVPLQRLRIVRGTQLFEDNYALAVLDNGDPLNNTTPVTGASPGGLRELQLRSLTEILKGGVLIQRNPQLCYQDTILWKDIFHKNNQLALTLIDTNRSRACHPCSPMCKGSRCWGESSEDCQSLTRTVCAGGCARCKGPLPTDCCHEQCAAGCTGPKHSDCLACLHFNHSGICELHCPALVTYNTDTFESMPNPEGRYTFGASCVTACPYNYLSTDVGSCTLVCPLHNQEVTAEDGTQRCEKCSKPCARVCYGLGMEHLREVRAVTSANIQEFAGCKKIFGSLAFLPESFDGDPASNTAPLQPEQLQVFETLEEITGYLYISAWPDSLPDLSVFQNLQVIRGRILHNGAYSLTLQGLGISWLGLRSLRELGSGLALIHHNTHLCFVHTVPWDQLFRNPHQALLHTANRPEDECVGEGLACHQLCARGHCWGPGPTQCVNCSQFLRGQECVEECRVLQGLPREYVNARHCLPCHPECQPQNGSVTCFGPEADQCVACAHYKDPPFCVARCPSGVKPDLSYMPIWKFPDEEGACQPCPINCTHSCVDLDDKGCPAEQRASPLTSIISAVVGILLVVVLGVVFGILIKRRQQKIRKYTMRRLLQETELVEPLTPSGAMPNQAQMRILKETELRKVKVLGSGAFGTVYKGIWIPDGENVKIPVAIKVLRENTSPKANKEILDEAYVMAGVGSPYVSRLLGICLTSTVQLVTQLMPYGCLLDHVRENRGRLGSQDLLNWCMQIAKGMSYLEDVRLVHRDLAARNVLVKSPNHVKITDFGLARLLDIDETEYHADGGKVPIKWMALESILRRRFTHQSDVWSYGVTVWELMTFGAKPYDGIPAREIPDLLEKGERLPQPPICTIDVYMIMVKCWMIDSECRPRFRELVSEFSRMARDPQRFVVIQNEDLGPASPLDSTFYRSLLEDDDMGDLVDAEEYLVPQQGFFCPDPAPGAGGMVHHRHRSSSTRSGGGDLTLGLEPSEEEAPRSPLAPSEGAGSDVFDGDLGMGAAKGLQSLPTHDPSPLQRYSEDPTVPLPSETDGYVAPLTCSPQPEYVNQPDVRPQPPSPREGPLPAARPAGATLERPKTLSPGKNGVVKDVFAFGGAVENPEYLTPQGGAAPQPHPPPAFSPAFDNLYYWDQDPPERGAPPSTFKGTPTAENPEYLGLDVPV
Tyrosine-protein kinase Yes, sequence (P07947 whole entry): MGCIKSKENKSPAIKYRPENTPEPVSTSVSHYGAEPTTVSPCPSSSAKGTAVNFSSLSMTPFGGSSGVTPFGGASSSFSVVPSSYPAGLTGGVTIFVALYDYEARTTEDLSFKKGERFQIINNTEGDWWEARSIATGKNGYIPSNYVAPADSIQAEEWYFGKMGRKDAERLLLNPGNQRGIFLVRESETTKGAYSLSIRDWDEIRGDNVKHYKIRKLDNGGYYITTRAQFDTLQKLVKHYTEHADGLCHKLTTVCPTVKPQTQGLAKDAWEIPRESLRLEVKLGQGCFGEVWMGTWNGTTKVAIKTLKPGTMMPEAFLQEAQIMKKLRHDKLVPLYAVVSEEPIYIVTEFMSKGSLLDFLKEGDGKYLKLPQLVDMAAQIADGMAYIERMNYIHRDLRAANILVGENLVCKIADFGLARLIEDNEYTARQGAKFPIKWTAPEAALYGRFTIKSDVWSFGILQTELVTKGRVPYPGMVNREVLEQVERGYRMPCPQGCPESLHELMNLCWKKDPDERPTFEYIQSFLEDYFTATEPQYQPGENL
Proto-oncogene tyrosine-protein kinase LCK (Mus musculus), sequence (P06240 2-509 limits assumed): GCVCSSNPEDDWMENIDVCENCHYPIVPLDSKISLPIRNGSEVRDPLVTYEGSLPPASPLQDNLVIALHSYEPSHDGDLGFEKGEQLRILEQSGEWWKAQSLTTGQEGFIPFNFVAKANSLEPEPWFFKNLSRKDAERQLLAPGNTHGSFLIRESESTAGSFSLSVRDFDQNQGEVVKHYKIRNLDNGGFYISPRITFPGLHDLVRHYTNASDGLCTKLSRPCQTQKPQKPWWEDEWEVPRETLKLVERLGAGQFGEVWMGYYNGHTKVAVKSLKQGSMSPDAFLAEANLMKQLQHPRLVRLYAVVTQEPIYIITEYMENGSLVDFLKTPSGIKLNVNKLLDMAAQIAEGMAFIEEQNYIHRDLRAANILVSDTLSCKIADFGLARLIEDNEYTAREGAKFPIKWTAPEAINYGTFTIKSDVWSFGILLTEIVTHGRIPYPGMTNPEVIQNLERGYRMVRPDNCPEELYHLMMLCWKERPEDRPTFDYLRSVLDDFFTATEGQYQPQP

Broadly, the IC50 is the concentration that inhibits the measured activity by half. Turning to `Cc1cccc(Cl)c1NC(=O)c1cnc(NC(=O)c2cccs2)s1`, the IC50 in [1] was 2230 nM.
For the compound `Cc1nc(NCCCN2CCOCC2)cc(Nc2ncc(C(=O)Nc3c(C)cccc3Cl)s2)n1`, the IC50 was 7 nM in data set [2] and 0.7 nM in data set [1].
As for `Cc1cc(C)nc(Nc2ncc(C(=O)Nc3c(C)cccc3Cl)s2)c1`, the IC50 was 140 nM in [2] and 4 nM in data set [1].
The like results for `Cc1cccc(C)c1NC(=O)c1cnc(Nc2cccnn2)s1` were, in that order, 350 nM and 0.3 nM.
The like results for `Cc1cnc(Nc2ncc(C(=O)Nc3c(C)cccc3Cl)s2)c(C)n1` were, in that order, 570 nM and 6.3 nM.
Consider `Cc1cccc(Cl)c1NC(=O)c1cnc(Nc2cccc(NCCO)n2)s1`, for which the IC50 is 75 nM in [2] and under 0.2 nM in data set [1].
For `Cc1nc(Nc2ncc(C(=O)Nc3c(C)cccc3Cl)s2)cc(N2CCC(CO)CC2)n1`, in that order: 4 nM and 0.7 nM.
Turning to `Cc1cccc(Cl)c1NC(=O)c1cnc(NC(=O)C2CC2)s1`, in [2], half-maximal inhibition (IC50) was put at 884 nM.
`Cc1cc(C)c(NC(=O)c2cnc(Nc3cnccn3)s2)c(C)c1`: the values for the IC50 in [2] and in data set [1] were 500 nM and 4.9 nM, respectively.
In turn, `Cc1cc(C)c(NC(=O)c2sc(NC(=O)OCc3ccccc3)nc2C)c(C)c1` gave a half-maximal inhibitory concentration (IC50) in data set [3] of 33300 nM.
For the compound `Cc1cc(C)c(NC(=O)c2sc(N)nc2C)c(C)c1`, in data set [2], the IC50 is over 10000 nM.
`Cc1cc(C)c(NC(=O)c2sc(NC(=O)c3ccsc3)nc2C)c(C)c1` returned an IC50 in data set [1] of 180 nM.
Same read-out and setting: the result for `Cc1cc(C)c(NC(=O)c2sc(NC(=O)c3ccoc3)nc2C)c(C)c1` reads 1200 nM.
For `Cc1cc(C)c(NC(=O)c2sc(NC(=O)NCc3ccccc3)nc2C)c(C)c1`, the IC50 stood at 100 nM in data set [3] and 130 nM in data set [1].
For the compound `Cc1cccc(Cl)c1NC(=O)c1cnc(Nc2cccnn2)s1`, the IC50 in data set [2] turned out to be 350 nM; in [1] it was 4 nM.
On to `Cc1nc(NCCO)cc(Nc2ncc(C(=O)Nc3c(C)cccc3Cl)s2)n1`, for which the IC50 was 23 nM in [2] and 0.2 nM in data set [1].
What is called ED50 is the dose that gives a 50% effect, or the effect in half of the subjects. Read a high ED50 as weaker potency. A word on the Ki: it is the dissociation constant of the complex between target and ligand, obtained from inhibition or displacement. Read a low Ki as tighter binding. For orientation: inhibition in vivo means the drop in the measured response relative to a control, in per cent. Read a low inhibition in vivo as a weak effect. Consider `Cc1cc(Nc2ncc(C(=O)Nc3c(C)cccc3Cl)s2)nc(C)n1`, for which the IC50 is 0.8 nM in [4]; over 10000 nM in data set [5]; 2 nM in data set [6]; 80 nM in [2]; 4 nM in data set [7]; under 2 nM in data set [10]. For the same compound, the values for the IC50 in data set [11], in data set [1] and in data set [12] were 500 nM, 1 nM and 670 nM, respectively. The same compound displayed an ED50 in [8] of 5 mg/kg. The same compound had a Vss in data set [9] of 12 L/kg. In [3], the Ki came to 0.13 nM. In data set [13], this compound registered an inhibition in vivo at 60 mg/kg of 90%.
As to `Cc1cccc(Cl)c1NC(=O)c1cnc(Nc2ccncc2)s1`, the IC50 in data set [2] amounted to 270 nM; in data set [1], 9.4 nM.
The like results for `Cc1cccc(Cl)c1NC(=O)c1cnc(Nc2cc(N3CCOCC3)ncn2)s1` were, in that order, 3 nM and 0.5 nM.
The like results for `Cc1cccc(Cl)c1NC(=O)c1cnc(Nc2ccccn2)s1` were, in that order, 140 nM and 1.2 nM.
Compound `Cc1cccc(Cl)c1NC(=O)c1sc(NC(=O)c2ccsc2)nc1C` came in with an IC50 in data set [1] of 390 nM.
Consider `Cc1ccnc(Nc2ncc(C(=O)Nc3c(C)cccc3Cl)s2)c1`, for which the figures for the IC50 in data set [2] and in data set [1] were 80 nM and 0.5 nM, respectively.
The compound `Cc1cccc(Cl)c1NC(=O)c1cnc(NC(=O)C2CCCC2)s1` displayed an IC50 in data set [1] of 1340 nM.
For the compound `Cc1cccc(Cl)c1NC(=O)c1cnc(Nc2cccnc2)s1`, the IC50 was 870 nM in data set [2] and 6.7 nM in [1].
Regarding `Cc1cc(C)c(NC(=O)c2sc(NC(=O)NC(C)(C)C)nc2C)c(C)c1`, in data set [1], the IC50 is 1300 nM.
Regarding `Cc1nc(Nc2ncc(C(=O)Nc3c(C)cccc3Cl)s2)cc(N2CCOCC2)n1`, the IC50 in data set [2] came to 5 nM; in [1], 1.3 nM.
As to `Cc1cccc(C)c1NC(=O)c1cnc(Nc2ccccn2)s1`, the IC50 in data set [2] was found to be 180 nM; in data set [1] it was 1.2 nM.
Take `Cc1cccc(Cl)c1NC(=O)c1sc(NC(=O)c2cccs2)nc1C`: in [1], the IC50 amounted to 130 nM.
For the compound `Cc1cc(C)c(NC(=O)c2cnc(Nc3ccccn3)s2)c(C)c1`, the IC50 in data set [2] stood at 510 nM; in data set [1] it was 5 nM.
One may read the inhibition as the percentage by which the read-out fell short of the control. A high value points to a response far below the control. `Cc1nc(NC(=O)OC(C)(C)C)sc1C(=O)Nc1ccccc1` gave an inhibition in data set [14] of 28%.
For the compound `Cc1cccc(Cl)c1NC(=O)c1cnc(Nc2cccc(NCCCn3ccnc3)n2)s1`, the IC50 in data set [2] is 2 nM; in data set [1], under 0.5 nM.
For `Cc1cc(C)c(NC(=O)c2cnc(Nc3cc(C)nc(C)n3)s2)c(C)c1`, in that order: 140 nM and 3 nM.
`Cc1cc(C)nc(Nc2ncc(C(=O)Nc3c(C)cccc3Cl)s2)n1` had an IC50 in data set [1] of 50 nM.
Take `Cc1cc(C)c(NC(=O)c2sc(NC(=O)Nc3ccccc3)nc2C)c(C)c1`: the IC50 in [3] stood at 90 nM; in data set [1] it was 160 nM.
Turning to `CC(=O)Nc1nc(C)c(C(=O)Nc2c(C)cc(C)cc2C)s1`, the IC50 in data set [3] worked out at 510 nM; in data set [1], 480 nM.
For `Cc1cccc(Cl)c1NC(=O)c1cnc(Nc2cccc(NCCCN3CCOCC3)n2)s1`, the values for the IC50 in data set [2] and in [1] were 8 nM and 0.5 nM, respectively.
`Cc1cccc(Cl)c1NC(=O)c1cnc(NC(=O)c2ccsc2)s1`: the IC50 in [2] was over 2000 nM; in [1], 17 nM.
`Cc1ccc(NC(=O)c2sc(NC(=O)OC(C)(C)C)nc2C)c(C)c1`: the half-maximal inhibitory concentration (IC50) in data set [3] amounted to 27400 nM.
On to `Cc1cccc(Nc2ncc(C(=O)Nc3c(C)cccc3Cl)s2)n1`, for which the figures for the IC50 in [2] and in data set [1] were 110 nM and 0.6 nM, respectively.
`Cc1nc(Nc2ncc(C(=O)Nc3c(C)cccc3Cl)s2)cc(N2CCN(CCO)CC2)n1` [DASATINIB]: the 50% inhibitory concentration (IC50) in [2] worked out at 3 nM.
In [1], `Cc1cc(C)c(NC(=O)c2sc(NC(=O)C(C)(C)C)nc2C)c(C)c1` returned an IC50 of 12100 nM.

For the origin of these results see ChEMBL document CHEMBL1137331 (J Med Chem, 2006).
